{
  "source": "paper PMC5458547",
  "about": "“Discovery of first-in-class reversible dual small molecule inhibitors against G9a and DNMTs in hematological malignancies” (Nature Communications, 2017)",
  "assay_in_all_cases": "Cell proliferation assay (MTS)",
  "assay_type_in_all_cases": "cell-based",
  "key": {"SU-DHL-8": {"tested_on": "SU-DHL-8", "details": "Homo sapiens, ABC-DLBCL, 48 h"}, "DB": {"tested_on": "DB", "details": "Homo sapiens, GC-DLBCL, 48 h"}, "BxPC3": {"tested_on": "BxPC3", "details": "Homo sapiens, BXPC-3; Pancreas"}, "MD-901": {"tested_on": "MD-901", "details": "Homo sapiens; ABC-DLBCL, 48 h"}},
  "data": [
    {"smiles": "COc1cc2c(NC3CCN(C)CC3)cc(-c3ccc(C)o3)nc2cc1OCCCN1CCCC1", "note": "[CM-272, 6-methoxy-2-(5-methyl-2-furyl)-N-(1-methyl-4-piperidyl)-7-(3-pyrrolidin-1-ylpropoxy)quinolin-4-amine]", "values": [
      {"measurement": "GI50", "setting": "SU-DHL-8", "result": 1950, "unit": "nM"},
      {"measurement": "GI50", "setting": "DB", "result": 1310, "unit": "nM"},
      {"measurement": "GI50", "setting": "BxPC3", "result": 319, "unit": "nM"},
      {"measurement": "GI50", "setting": "MD-901", "result": 1460, "unit": "nM"}
    ]}
  ]
}
